According to PMC8752738, “A propolis-derived small molecule ameliorates metabolic syndrome in obese mice by targeting the CREB/CRTC2 transcriptional complex” (Nature Communications, 2022):
Values joined by “and” are separate entries in the source; they are usually repeats but may differ in a detail not shown here. Equal entries are not always repeated.

Target: T1, GST-CREB / FLAG-CRTC2 interaction (Homo sapiens, UniProt P16220)
T1 construct: made in house; host or cells: GST-CREB beads (pGEX5X-1); FLAG-CRTC2 expressed in HEK293T cells
Test: GST-pull-down of FLAG-CRTC2 from HEK293T lysates by GST-CREB beads
Assay type: biochemical
Text: To further confirm whether APC disrupts the protein association between CREB and CRTC2, we performed GST-pull-down assays in which GST-CREB beads were used to immunoprecipitated FLAG-tagged CRTC2 proteins that were expressed in HEK293T cells. As expected, APC attenuated the amounts of FLAG-CRTC2 proteins recovered by GST-CREB beads from HEK293T cell lysates (Fig. 2a). […] In contrast, APC had little effect on the association of GST-CREB with HA-P300 (Supplementary Fig. 2a), as well as the interaction between endogenous CRTC2 and CBP proteins (Fig. 2c). […]
Fig. 2 APC blocks interaction between CREB and CRTC2. a Analysis of GST-CREB immunoprecipitated with overexpressed FLAG-CRTC2 from the lysates of HEK293T cells. […] Data are represented as mean ± SEM); P values were determined by one-way ANOVA followed Dunnett’s multiple comparisons test. b Analysis of HA-CRTC2 immunoprecipitated with endogenous CREB from primary hepatocyte lysates. […] Data are represented as mean ± SEM; P values were determined by one-way ANOVA followed Dunnett’s multiple comparisons test. c Immunoblotting analysis of endogenous CREB, CRTC2, and CBP interaction by an anti-CRTC2 antibody from the lysate of primary hepatocytes. […] Data are represented as mean ± SEM; P values were determined by one-way ANOVA followed Dunnett’s multiple comparisons test (compared with APC = 0). […]

T1 sequence (P16220 whole entry): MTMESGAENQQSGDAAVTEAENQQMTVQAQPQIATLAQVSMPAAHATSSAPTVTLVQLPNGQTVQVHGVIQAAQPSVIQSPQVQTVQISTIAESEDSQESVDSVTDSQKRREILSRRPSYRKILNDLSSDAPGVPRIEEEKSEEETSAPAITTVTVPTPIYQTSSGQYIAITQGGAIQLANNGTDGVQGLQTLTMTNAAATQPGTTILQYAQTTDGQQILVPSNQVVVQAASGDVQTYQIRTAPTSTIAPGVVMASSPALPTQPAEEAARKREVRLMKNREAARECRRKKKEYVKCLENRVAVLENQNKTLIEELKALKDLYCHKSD

SMILES: CC(C)=CCc1cc(C=CC(=O)O)cc(CC=C(C)C)c1O [APC, 3,5-diprenyl-4-hydroxycinnamic acid]
- Pull down FLAG/GST band dentsity (FLAG in IP fraction) (Fig 2a source data, replicates, GST-CREB beads +, FLAG-CRTC2 +, APC + (10 μM)): 1.359 FOLDS and 1.3596 FOLDS and 1.382 FOLDS
- FLAG-CRTC2 recovered by GST-CREB beads (HEK293T lysates, APC 10 μM): attenuated
